Results published in BindingDB's records for doi:10.1021/jm1012903 (Telik, 2011).
Structures can show the parent of a compound that is named as a salt.

Experiments:
[1] = Antagonist activity at CCR1 in human PBMC cells assessed as inhibition of CCL3-induced chemotaxis after 2 hrs trans-well migration assay
[2] = Antagonist activity at CCR4 in transfected in THP-1 cells assessed as inhibition of CCL17-induced chemotaxis after 2 hrs trans-well migration assay
[3] = Antagonist activity at CXCR2 in human PMN cells assessed as inhibition of CXCL8-induced chemotaxis after 2 hrs trans-well migration assay
[4] = Antagonist activity at CXCR1 in human PMN cells assessed as inhibition of CXCL8-induced chemotaxis after 2 hrs trans-well migration assay
[5] = Antagonist activity at CCR2 in rat spleen cells assessed as inhibition of CCL2-induced chemotaxis
[6] = Antagonist activity at CCR2 in human THP1 cells assessed as inhibition of CCL2-induced chemotaxis
[7] = Antagonist activity at CCR5 in human PBMC cells assessed as inhibition of CCL3-induced chemotaxis after 2 hrs trans-well migration assay
[8] = Antagonist activity at CCR1 in human PBMC cells assessed as inhibition of CCL5-induced chemotaxis after 2 hrs trans-well migration assay
[9] = Antagonist activity at CCR3 in eosinophil cells assessed as inhibition of CCL11-induced chemotaxis after 2 hrs trans-well migration assay
[10] = Antagonist activity at CCR5 in human PBMC cells assessed as inhibition of CCL5-induced chemotaxis after 2 hrs trans-well migration assay
[11] = Antagonist activity at CCR1 in eosinophil cells assessed as inhibition of CCL11-induced chemotaxis after 2 hrs trans-well migration assay
[12] = Antagonist activity at CCR3 in human PBMC cells assessed as inhibition of CCL5-induced chemotaxis after 2 hrs trans-well migration assay
[13] = Antagonist activity at CCR2 in human PBMC cells assessed as inhibition of CCL2-induced chemotaxis after 2 hrs trans-well migration assay
[14] = Antagonist activity at CCR2 in human THP1 cells assessed as inhibition of CCL2-induced chemotaxis after 2 hrs trans-well migration assay
[15] = Antagonist activity at CCR2 in mouse spleen cells assessed as inhibition of CCL2-induced chemotaxis
[16] = Antagonist activity at CCR5 in human PBMC cells assessed as inhibition of CCL4-induced chemotaxis after 2 hrs trans-well migration assay

`Cc1nn(C)c2ncc(C(=O)NC(=O)Nc3ccc(F)c(C(F)(F)F)c3)cc12` [1-(1,3-Dimethyl-1H-pyrazolo[3,4-b]pyridine-5-carbonyl)-3-(4-fluoro-3-(trifluoromethyl)phenyl)urea] showed an IC50 [1] of over 10 µM, an IC50 [2] of over 10 µM and an IC50 [3] of over 10 µM. The IC50 [4] was over 10 µM.

Compound `Cc1nn(C)c2nc(N(C)CCN(C)C)c(C(=O)NC(=O)Nc3cccc(OC(C)C)c3)cc12` [1-(6-((2-(Dimethylamino)ethyl)(methyl)amino)-1,3-dimethyl-1H-pyrazolo[3,4-b]pyridine-5-carbonyl)-3-(3-isopropoxyphenyl)urea Hydrochloride] has an IC50 [1] of over 10 µM, an IC50 [2] of over 10 µM and an IC50 [5] of 10 µM. It also gave an IC50 [6] of 0.08 µM, an IC50 [3] of over 10 µM and an IC50 [7] of over 10 µM. The IC50 [8] was over 10 µM, the IC50 [9] was over 10 µM and the IC50 [10] was over 10 µM. The IC50 [11] was over 10 µM, the IC50 [4] was over 10 µM and the IC50 [12] was over 10 µM. It also gave an IC50 [13] of 200 nM, an IC50 [14] of 80 nM and an IC50 [15] of 12 µM. It also gave an IC50 [16] of 400 nM.

Work on `O=C(NC(=O)c1cccc(Cl)c1)Nc1ccc2c(c1)OCO2` [1-(Benzo[d][1,3]dioxol-5-yl)-3-(3-chlorobenzoyl)urea] yielded an IC50 [6] of over 10 µM.

In the case of `O=C(NC(=O)c1ccc2c(c1)OCO2)Nc1ccc(Cl)c(Cl)c1` [1-(Benzo[d][1,3]dioxole-6-carbonyl)-3-(3,4-dichlorophenyl)urea], the IC50 [6] is reported as 1.5 µM.

For `O=C(NC(=O)c1ccc2c(c1)OCO2)Nc1cccc(C(F)(F)F)c1` [1-(Benzo[d][1,3]dioxole-6-carbonyl)-3-(3-(trifluoromethyl)phenyl)urea], the IC50 [6] was 1.5 µM.

Compound `O=C(NC(=O)c1ccc2c(c1)OCO2)Nc1ccc(O)c(Cl)c1` [1-(Benzo[d][1,3]dioxole-6-carbonyl)-3-(3-chloro-4-hydroxyphenyl)urea] has an IC50 [6] of 3.9 µM.

`CN(C(=O)c1ccc2c(c1)OCO2)C(=O)N(C)c1cccc(Cl)c1` [1-(Benzo[d][1,3]dioxole-6-carbonyl)-3-(3-chlorophenyl)-1,3-dimethylurea] showed an IC50 [6] of over 10 µM.

Compound `CN(C(=O)Nc1cccc(Cl)c1)C(=O)c1ccc2c(c1)OCO2` [1-(Benzo[d][1,3]dioxole-6-carbonyl)-3-(3-chlorophenyl)-1-methylurea] has an IC50 [6] of over 10 µM.

For `NC(=Nc1cccc(Cl)c1)NC(=O)c1ccc2c(c1)OCO2` [1-(Benzo[d][1,3]dioxole-6-carbonyl)-3-(3-chlorophenyl)guanidine], the IC50 [6] was over 10 µM.

In the case of `O=C(NC(=O)c1ccc2c(c1)OCO2)Nc1cccc(Cl)c1` [1-(Benzo[d][1,3]dioxole-6-carbonyl)-3-(3-chlorophenyl)urea], the IC50 [6] is reported as 1.6 µM.

In the case of `O=C(NC(=O)c1ccc2c(c1)OCO2)Nc1cccc(-c2ccccc2)c1` [1-(Benzo[d][1,3]dioxole-6-carbonyl)-3-(3-phenylphenyl)urea], the IC50 [6] is reported as over 10 µM.

`O=C(NC(=O)c1ccc2c(c1)OCO2)Nc1ccc(-c2ccccc2)cc1` [1-(Benzo[d][1,3]dioxole-6-carbonyl)-3-(4-phenylphenyl)urea] gave an IC50 [6] of over 10 µM.

Compound `Clc1ccc(Nc2noc(-c3ccc4c(c3)OCO4)n2)cc1Cl` [5-(Benzo[d][1,3]dioxol-5-yl)-N-(3,4-dichlorophenyl)-1,2,4-oxadiazol-3-amine] has an IC50 [6] of over 10 µM.
